Experiments:
[1] = tested on: KM12 (colon cancer cell line); assay: NCI-60 five-dose assay; type: cell-based, human; conditions: five doses (10^−4–10^−8 M), read-out: Growth inhibition 50 (GI50)
[2] = tested on: MOLT-4 (leukemia cell line); assay: NCI-60 five-dose assay; type: cell-based, human; conditions: five doses (10^−4–10^−8 M), read-out: Growth inhibition 50 (GI50)
[3] = tested on: HCT-15 (colon cancer cell line); assay: NCI-60 five-dose assay; type: cell-based, human; conditions: five doses (10^−4–10^−8 M), read-out: Growth inhibition 50 (GI50)
Prostate Cancer panel = assay: NCI-60 five-dose assay, panel-level GI50 (mean graph midpoint); type: cell-based, human; conditions: Prostate Cancer panel average; read-out: GI50 mean graph midpoint (MG_MID)
Renal Cancer panel = assay: as above; type: cell-based, human; conditions: Renal Cancer panel average; read-out: GI50 mean graph midpoint (MG_MID)
[4] = tested on: COLO 205 (colon cancer cell line); assay: NCI-60 five-dose assay; type: cell-based, human; conditions: five doses (10^−4–10^−8 M), read-out: Growth inhibition 50 (GI50)
[5] = tested on: SK-MEL-28 (melanoma cell line); assay: NCI-60 five-dose assay; conditions: SK-MEL-28
Leukemia panel = assay: NCI-60 five-dose assay, panel-level GI50 (mean graph midpoint, range); type: cell-based, human; conditions: Leukemia panel average; read-out: GI50 mean graph midpoint (MG_MID)
Description: (§1) Due to these preliminary results, six compounds, 1, 5, 10, 11, 17, and 20, were selected for the five-dose screen NCI-programme against the same panel of tumour cell lines.
(§2) Next, a mean graph midpoint (MG_MD) was calculated for compounds 1, 5, 10, 11, 17, and 20 and reported as waterfall graphs GI50, TGI, and LC50 in the Supplementary Materials (Figures S69–S86). In Table 9, we reported the average GI50 for the nine-cancer panels, underlining both the activity and selectivity for compounds 1, 10, 11, and 20.

Colon Cancer panel = assay: as above; type: cell-based, human; conditions: Colon Cancer panel average; read-out: GI50 mean graph midpoint (MG_MID)
Description: as §1, §2

Melanoma panel = assay: as above; type: cell-based, human; conditions: Melanoma panel average; read-out: GI50 mean graph midpoint (MG_MID)
Description: as §1, §2

[6] = tested on: UACC-257 (melanoma cell line); assay: NCI-60 five-dose assay; conditions: UACC-257
[7] = tested on: RXF 393 (renal cancer cells); assay: NCI-60 five-dose assay; type: cell-based, human; conditions: five-dose screen
[8] = tested on: NCI cancer panel (all cell lines); assay: NCI-60 five-dose assay, overall mean graph midpoint (MG_MID); type: cell-based, human; conditions: MG_MID over all panels; read-out: GI50 mean graph midpoint (MG_MID)
Description: as §1, §2

[9] = tested on: SW-620 (colon cancer cell line); assay: NCI-60 five-dose assay; type: cell-based, human; conditions: SW-620; five doses (10^−4–10^−8 M); read-out: Growth inhibition 50 (GI50)
[10] = tested on: SK-MEL-5 (melanoma cell line); assay: NCI-60 five-dose assay; conditions: SK-MEL-5
[11] = tested on: HCC-2998 (colon cancer cell line); assay: NCI-60 five-dose assay; type: cell-based, human; conditions: five doses (10^−4–10^−8 M), read-out: Growth inhibition 50 (GI50)
[12] = tested on: LOX IMVI (melanoma cell line); assay: NCI-60 five-dose assay
[13] = tested on: CCRF-CEM (leukemia cell line); assay: NCI-60 five-dose assay; type: cell-based, human; conditions: five doses (10^−4–10^−8 M), read-out: Growth inhibition 50 (GI50)
[14] = tested on: MDA-MB-468 (breast cancer); assay: NCI-60 five-dose assay; type: cell-based, human; conditions: five-dose screen
M14 (melanoma cell line) = assay: NCI-60 five-dose assay; conditions: M14
MCF-7 (breast cancer) = assay: NCI-60 five-dose assay; type: cell-based, human; conditions: five-dose screen
Source text: (§3) We first evaluated the cytotoxic activity of tricyclic-pyrrole carboxamides 1–20 using the NCI-60 cell line panel, representing nine different human cancers: leukemia, melanoma, and cancers of the lung, colon, central nervous system (CNS), ovary, kidney, prostate, and breast (the one-dose graph for compounds 1–20 is reported in Supplementary Materials, Figures S43–S62). Compounds 1, 5, 10, 11, 17, and 20 satisfied pre-determined threshold inhibition criteria in a minimum number of cell lines; therefore, they were also tested in the full five-dose assay (Figures S63–S68 in the Supplementary Materials).
as §1

[15] = tested on: HOP-92 (non-small cell lung cancer); assay: NCI-60 five-dose assay; type: cell-based, human; conditions: five-dose screen
Source text: as §3, §1

[16] = tested on: HL-60(TB) (leukemia cell line); assay: NCI-60 five-dose assay; type: cell-based, human; conditions: five doses (10^−4–10^−8 M), read-out: Growth inhibition 50 (GI50)
[17] = tested on: SK-MEL-2 (melanoma cell line); assay: NCI-60 five-dose assay; conditions: SK-MEL-2
[18] = tested on: K-562 (leukemia cell line); assay: NCI-60 five-dose assay; type: cell-based, human; conditions: five doses (10^−4–10^−8 M), read-out: Growth inhibition 50 (GI50)
[19] = tested on: UACC-62 (melanoma cell line); assay: NCI-60 five-dose assay; conditions: UACC-62
[20] = read-out: Growth inhibition 50 (GI50), five doses (10^−4–10^−8 M)
[21] = read-out: LC50 (molar concentration leading to 50% net cell death)

## N-(3-(4-Benzylpiperazin-1-yl)propyl)-2-chloro-1,4,5,6-tetrahydrobenzo[6,7]cyclohepta[1,2-b]pyrrole-2-carboxamide [Compound 11]
[1]
  GI50: 4.11 µM
[2]
  GI50: 2.69 µM
[3]
  GI50: 3.65 µM
Prostate Cancer panel
  GI50: 5.13 µM
Renal Cancer panel
  GI50: 5.89 µM
[4]
  GI50: 1.65 µM
[5]
  TGI (molar concentration giving total growth inhibition): 3.31 µM
[5]; [20]
  GI50: 1.75 µM
[5]; [21]
  CC50: 6.16 µM
Leukemia panel
  GI50: 2.88 µM
Colon Cancer panel
  GI50: 2.81 µM
Melanoma panel
  GI50: 2.34 µM
[6]
  TGI (molar concentration giving total growth inhibition): 3.39 µM
[6]; [20]
  GI50: 1.74 µM
[6]; [21]
  CC50: 6.61 µM
[7]
  GI50: 1.96 µM
[8]
  GI50: 4.47 µM
[9]
  GI50: 3.57 µM
[10]
  TGI (molar concentration giving total growth inhibition): 3.09 µM
[10]; [20]
  GI50: 1.72 µM
[10]; [21]
  CC50: 5.62 µM
[11]
  GI50: 1.73 µM
[12]
  TGI (molar concentration giving total growth inhibition): 5.13 µM
[12]; [20]
  GI50: 2.16 µM
[12]; [21]
  CC50: 15.8 µM
[13]
  GI50: 3.89 µM
[14]
  GI50: 2.69 µM
M14 (melanoma cell line)
  TGI (molar concentration giving total growth inhibition): 3.55 µM
M14 (melanoma cell line); [20]
  GI50: 1.83 µM
M14 (melanoma cell line); [21]
  CC50: 6.92 µM
MCF-7 (breast cancer)
  GI50: 2.77 µM
[15]
  GI50: 2.72 µM
[16]
  GI50: 2.92 µM
[17]
  TGI (molar concentration giving total growth inhibition): 20.89 µM
[17]; [20]
  GI50: 7.85 µM
[17]; [21]
  CC50: 47.9 µM
[18]
  GI50: 2.57 µM
[19]
  TGI (molar concentration giving total growth inhibition): 9.77 µM
[19]; [20]
  GI50: 2.55 µM
[19]; [21]
  CC50: 31.6 µM
